Structures can show the parent of a compound that is named as a salt. Blank lines part the entries; values can stand above or below the compound they belong to.
Tests used:
MCP-1 production = experiment: LPS induced MCP-1 production from human whole blood; assay type: cell-based; details: LPS 200 ng/mL, 18-24 hours
Experimental: Activation of monocytic cells by agonists of toll-like receptors such as bacterial lipopolysaccharide (LPS) results in production of key inflammatory mediators including MCP-1. Such pathways are widely considered to be central to the pathophysiology of a range of auto-immune and inflammatory disorders. Blood is collected in a tube containing Sodium heparin (Leo Pharmaceuticals) (10 units of heparin/mL of blood). 96-well compound plates containing 1 μL test sample in 100% DMSO were prepared (two replicates on account of donor variability). 130 μL of whole blood was dispensed into each well of the 96-well compound plates and incubated for 30 min at 37° C., 5% CO2. 10 μL of lipopolysaccharide (from Salmonella typhosa; L6386) made up in PBS (200 ng/mL final assay concentration) was added to each well of the compound plates. The plates were then placed in the humidified primary cell incubator for 18-24 hours at 37° C., 5% CO2. 140 μL of PBS was added to all wells of the compound plates containing blood. The plates were then sealed and centrifuged for 10 mins at 2500 rpm. […] 150 μL of 2×MSD Read Buffer T (stock 4×MSD Read Buffer T was diluted 50:50 with de-ionised water) was then added to each well and the plates read on the MSD Sector Imager 6000. Concentration response curves for each compound were generated from the data and an pIC50 value was calculated.

[1] = system: Bromodomains BRD2, BRD3, BRD4 and BRDT; experiment: Fluoroligand binding to mutated vs non-mutated bromodomain (TR-FRET); parameters: species or system Human; details: single residue mutations in the acetyl lysine binding pocket
Experimental: The binding of compounds of the invention to Bromodomains BRD2, BRD3, BRD4 and BRDT was assessed using mutated proteins to detect differential binding to either Binding Domain 1 (BD1) or Binding Domain 2 (BD2) on the bromodomain. These single residue mutations in the acetyl lysine binding pocket greatly lower the affinity of the fluoroligand (Reference Compound X) for the mutated domain (>1000 fold selective for the non-mutated domain). Therefore in the final assay conditions, binding of the fluoroligand to the mutated domain cannot be detected and subsequently the assay is suitable to determine the binding of compounds to the single non-mutated bromodomain.
Recombinant Human Bromodomains [(BRD2 (1-473) (Y113A) and (Y386A), BRD3 (1-435) (Y73A) and (Y348A) BRD4 (1-477) (Y97A) and (Y390A) and BRDT (1-397) (Y66A) and (Y309A)] were expressed in E. coli cells (in pET15b vector for BRD2/3/4 and in pET28a vector for BRDT) with a 6-His tag at the N-terminal. The His-tagged Bromodomain pellet was resuspended in 50 mM HEPES (pH7.5), 300 mM NaCl, 10 mM imidazole & 1 μl/ml protease inhibitor cocktail and extracted from the E. coli cells using sonication and purified using a nickel sepharose high performance column, the proteins were washed and then eluted with a linear gradient of 0-500 mM imidazole with buffer 50 mM HEPES (pH7.5), 150 mM NaCl, 500 mM imidazole, over 20 column volumes. […]

recombinant human CES1 = target: T1, recombinant human CES1 (Homo sapiens, UniProt P23141); experiment: Hydrolysis by hCES-1 (HPLC assay); assay type: in vitro ADME; details: 50 μM test compound, 50 nM CES1, 20° C., pH 7.5, n=2
T1 construct: Recombinant human CES1 (Gly18-Glu563, bearing a polyhistidine tag at the C-terminus); purchased Novoprotein, Summit, N.J., USA C450; host or cells: human cells
T1 sequence (P23141 18-563): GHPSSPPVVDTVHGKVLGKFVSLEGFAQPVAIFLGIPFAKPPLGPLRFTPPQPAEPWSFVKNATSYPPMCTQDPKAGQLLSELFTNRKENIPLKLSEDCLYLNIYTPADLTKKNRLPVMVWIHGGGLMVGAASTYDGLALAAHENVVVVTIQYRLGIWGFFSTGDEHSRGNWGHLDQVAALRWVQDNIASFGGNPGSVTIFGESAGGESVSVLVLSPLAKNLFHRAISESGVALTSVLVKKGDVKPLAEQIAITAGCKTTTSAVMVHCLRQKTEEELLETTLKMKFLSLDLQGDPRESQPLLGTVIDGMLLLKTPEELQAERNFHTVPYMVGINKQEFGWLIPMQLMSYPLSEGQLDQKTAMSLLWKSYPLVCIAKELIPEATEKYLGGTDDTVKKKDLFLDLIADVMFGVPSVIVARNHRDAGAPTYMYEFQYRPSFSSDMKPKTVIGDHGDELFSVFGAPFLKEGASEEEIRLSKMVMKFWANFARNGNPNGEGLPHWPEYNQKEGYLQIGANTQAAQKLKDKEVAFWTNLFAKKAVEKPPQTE
Experimental: Hydrolysis of ESM-containing BET inhibitors by carboxylesterase 1 (CES1) is one aspect of delivering a targeted molecule. Rates of hydrolysis of certain compounds of the invention by recombinant human CES1 were determined using an HPLC assay. Recombinant human CES1 (Gly18-Glu563, bearing a polyhistidine tag at the C-terminus) expressed in human cells and purified to homogeneity was obtained from Novoprotein, Summit, N.J., USA (catalogue number C450). Reactions were run in 384 well plates at 20° C. in a buffer of 50 mM sodium phosphate pH 7.5/100 mM NaCl. Assays used a fixed concentration of test compound (50 μM) and CES1 (50 nM) and a time course of the reaction was obtained by stopping samples at increasing times by addition of formic acid to lower the pH. Stopped samples were subsequently analysed by HPLC to resolve product acid from unhydrolysed ester, using a 50×2 mm C18 […] reversed-phase column (Phenomenex Gemini) at a flow rate of 1 ml/min using a gradient of acetonitrile in water, containing 0.1% formic acid. Chromatogaphy was monitored using absorbance at 300 nm wavelength. The % of product formed was determined using integrated peak areas and used to determine the initial rate of the reaction. […]

- mean pIC50, LPS induced MCP-1 production (MCP-1 production): 7.5
Structure (SMILES): Cc1cc(-c2nc3cc(CN[C@H](C(=O)OC(C)C)[C@@H](C)O)ccc3n2CC2CCOCC2)cn(C)c1=O [edisylate salt of Example 1, Edisylate Salt of (2S,3R)-Isopropyl 2-(((2-(1,5-dimethyl-6-oxo-1,6-dihydropyridin-3-yl)-1-((tetrahydro-2H-pyran-4-yl)methyl)-1H-benzo[d]imidazol-5-yl)methyl)amino)-3-hydroxybutanoate]

- melting point: ~ 223 °C
Structure (SMILES): Cc1cc(-c2nc3cc(CN[C@H](C(=O)OC(C)C)[C@@H](C)O)ccc3n2CC2CCOCC2)cn(C)c1=O (as salt: edisylate) (hydrate or solvate) [Example 1, (2S,3R)-Isopropyl 2-(((2-(1,5-dimethyl-6-oxo-1,6-dihydropyridin-3-yl)-1-((tetrahydro-2H-pyran-4-yl)methyl)-1H-benzo[d]imidazol-5-yl)methyl)amino)-3-hydroxybutanoate]

Structure (SMILES): COc1ccc2c(c1)C(c1ccc(Cl)cc1)=N[C@@H](CC(=O)NCCCCCNC(=O)CCCCCC1(C)/C(=C/C=C/C=C/C3=[N+](CCCCS(=O)(=O)O)c4ccc(S(=O)(=O)O)cc4C3(C)C)N(CCCCS(=O)(=O)[O-])c3ccc(S(=O)(=O)O)cc31)c1nnc(C)n1-2 (some centres unmarked) [Reference Compound X]
- selectivity for the non-mutated domain over the mutated domain [1]: > 1000 fold

- IC50 (MCP-1 production; Homo sapiens, read-out: mean pIC50, LPS induced MCP-1 production (converted)): 25.1 nM
- mean rate of hydrolysis (specific activity of CES1) (recombinant human CES1): 0.21 μM/min/μM
Structure (SMILES): Cc1cc(-c2nc3cc(CN[C@H](C(=O)OC(C)C)[C@@H](C)O)ccc3n2CC2CCOCC2)cn(C)c1=O [Example 1, (2S,3R)-Isopropyl 2-(((2-(1,5-dimethyl-6-oxo-1,6-dihydropyridin-3-yl)-1-((tetrahydro-2H-pyran-4-yl)methyl)-1H-benzo[d]imidazol-5-yl)methyl)amino)-3-hydroxybutanoate]
